# Test results reported in patent US20230365577A1, “Photodynamic Therapy and Diagnosis” (RMW CHO Group Limited, priority 2020, published 2023).
# Read-outs that look alike come from different tables or passages of the source.
# Assays:
# [1] = tested on: SKOV3 ovarian cancer cells; test: Phototoxicity in SKOV3 cells (652 nm laser, AlamarBlue viability); type: cell-based, Human; settings: for IC90: Homo sapiens, SK-OV-3, light or radiation study
# Summary of the method: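 SKOV3 cells were loaded for 24 h with photosensitizer (0–10 μM in DMSO) in medium containing 10% Kollidon-12. After a media change they were irradiated at 652 nm, 50 mW/cm^2 for 5 min (15 J/cm^2), cultured a further 24 h, and viability was read by AlamarBlue in quadruplicate. Phototoxicity IC90 and dark-toxicity IC10 came from variable-slope normalized dose–response fits.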
# [2] = tested on: SKOV3 ovarian cancer cells; test: Inherent cytotoxicity (dark toxicity) in SKOV3 cells (AlamarBlue viability); type: cell-based, Human; settings: human, 24 h
# A549 = test: Cytotoxicity, pan-cancer panel; type: cell-based; settings: A549, lung adenocarcinoma
# Experimental: (§1) To test for inherent cytotoxicity (i.e. “dark toxicity”) of the phyllochlorin analogue the culture media was replaced after 24 hours with fresh media containing 10% (v/v) AlamarBlue Cell Viability Reagent (ThermoFisher) and cells incubated at 37° C. for 6 hours. Untreated cells were used as a control. Fluorescence (Ex 555 nm/Em 596 nm) was measured using a Cytation 3 Multimode Plate Reader (Biotek), and cytotoxicity assessed according to the % viable cells remaining. All measurements were made in quadruplicate.
# (§2) The activity of phyllochlorin analogues against multiple cancer cell types was assessed as above, using compounds 3 and 6 as examples.
# B16F10 = test: Cytotoxicity, pan-cancer panel; type: cell-based; settings: B16F10, melanoma
# Experimental: as §1, §2
# DLD-1 = test: Cytotoxicity, pan-cancer panel; type: cell-based; settings: DLD-1, colorectal adenocarcinoma
# Experimental: as §1, §2
# HEK293 = test: Cytotoxicity, pan-cancer panel; type: cell-based; settings: HEK293, embryonic kidney
# Experimental: as §1, §2
# HH = test: Cytotoxicity, pan-cancer panel; type: cell-based; settings: T cell lymphoma
# Experimental: as §1, §2
# LP9 = test: Cytotoxicity, pan-cancer panel; type: cell-based; settings: LP9, immortalised mesothelial cells
# Experimental: as §1, §2
# MDA-MB-468 = test: Cytotoxicity, pan-cancer panel; type: cell-based; settings: MDA-MB-468, breast adenocarcinoma (triple negative)
# Experimental: as §1, §2
compound,measurement,setting,value
"C=Cc1c(C)c2cc3nc(c(C)c4cc(C)c(cc5nc(cc1[nH]2)C(C)=C5CC)[nH]4)[C@@H](CCC(=O)N(C)CCCS[C@@H]1O[C@H](CO)[C@@H](O)[C@H](O)[C@H]1O)[C@@H]3C [Compound 6, 3-((7S,8S)-18-ethyl-2,5,8,12,17-pentamethyl-13-vinyl-7H,8H-porphyrin-7-yl)-N-methyl-N-(3-(((2S,3R,4S,5S,6R)-3,4,5-trihydroxy-6-(hydroxymethyl)tetrahydro-2H-pyran-2-yl)thio)propyl)propanamide]",IC90,"[1]; SKOV3, ovarian clear cell (Table 2), read-out: Phototoxicity IC90",0.19 µM
same,IC90,"[1]; SKOV3, 24 h uptake, 652 nm laser 50 mW/cm2 5 mins (15 J/cm2), viability 24 h later, read-out: Cellular Toxicity: Phototoxicity IC90",0.06 µM
same,IC90,"[1]; SKOV3, read-out: Phototoxicity apparent IC90",< 0.1 µM
same,Fold increase in cellular phototoxicity compared to compound 2,"[1]; SKOV3, IC90",approximately 4 fold
same,Cellular Toxicity: Dark toxicity IC10,[2],9.49 µM
same,Cytotoxicity IC10,[2],9.49 µM
same,Cytotoxicity IC10,A549,29.52 µM
same,Cytotoxicity IC10,B16F10,22.85 µM
same,Cytotoxicity IC10,DLD-1,9.20 µM
same,Cytotoxicity IC10,HEK293,8.16 µM
same,Cytotoxicity IC10,HH,10.25 µM
same,Cytotoxicity IC10,LP9,19.63 µM
same,Cytotoxicity IC10,MDA-MB-468,13.25 µM
